Assay results as given in patent publication US6590123B2, “Aminobenzoic acid derivatives having anti-tumorigenic activity, methods of making and using the same” (Mount Sinai School of Medicine of New York University, priority 1998, dated 2003).
Values after ≈ are worked out from the molar mass of the structure shown. Values joined by “and” are separate entries in the source; they are usually repeats but may differ in a detail not shown here. Identical values can stand only once. “Also recorded” adds a separate entry of the source. Like-named read-outs stand apart in the source and are kept apart here.

What was measured:
CEM cells [1] = assay: DNA fragmentation by electrophoresis (apoptosis); type: cell-based, human; settings: for apoptosis, DNA fragmentation on gel electrophoresis: 48 hours, compound 8 0.025 μg/ml, compound 9 0.005 μg/ml, fluorine compound 5.0 μg/ml, chlorine compound 0.75 μg/ml; for Apoptosis: 0.025 μg/ml, DNA electrophoresis
Description: DNA fragmentation was determined by a method reported previously (reference 3). Briefly, cells were treated in 1 ml lysis buffer (0.01M Tris. HCL pH 8.0, 0.01M NaCl, 0.01M EDTA pH 8.0 and 5% sodium dodecyl sulfate) containing 1 μg/ml protease K for 1 h at 50° C. The resulting products were extracted with phenol and chloroform:isoamylalcohol (24:1, v/v), and precipitated with ethanol followed by centrifugation at 7800 g (Sorvall RC-5B Du Pont, Newtown, Conn.). The ethanol was removed and the dry pellets of nucleic acid were resuspended in 10 mM Tris-HCL/1 mM EDTA solution. When DNA content was determined spectrophotometrically all samples had A260/A280 ratio≧2. The DNA samples were then treated with RNase (Sigma, St. Louis, Mo.) at a final concentration of 0.1 μg/μl for 20 min at 37° C. before gel loading. Approximately 4 μg size DNA aliquots were loaded onto horizontal agarose gel (1.5%) prepared with 1% ethidium bromide. Electrophoresis was performed at 75 volts for 2 h and the DNA patterns were visualized with UV light.
[…] After incubation, cells were washed twice in PBS. Cell pellets were resuspended in drug-free medium and incubated for 48 hr at 37° C. Cell viability, morphology, mitotic spindles, cell cycle distribution and apoptosis were determined 24 hr and 48 hr post pulse exposure.
Soluble DNA from cells was extracted by the method reported previously (14). Briefly, after washing with PBS, cells were treated in 1 ml lysis buffer (0.01 M Tris.HCL pH 8.0, 0.01 M NaCl, 0.01M EDTA pH 8.0 and 5% sodium dodecyl sulfate) containing 1 μg/ml proteinase K for 1 hr at 50° C. The resulting products were extracted with phenol and chloroform:isoamylalcohol (24:1, v/v), and precipitated with ethanol followed by centrifugation at 7800 g (Sorvall RC-5B Du Pont, Newtown, Conn.). The ethanol was removed and the dry pellet of nucleic acid was resuspended in 10 mM Tris-HCL/1 mM EDTA solution. DNA content was determined spectrophotometrically by measuring absorption at 260 nm (A260). All samples, had A260/A280≧2. The DNA samples were then treated with RNase (Sigma, St. Louis, Mo.) at a final concentration of 0.1 μg/l for 20 min at 37° C. before gel loading. The DNA sample (4 μg) was analyzed in 1.5% horizontal agarose gel prepared with 1% ethidium bromide. Electrophoresis was performed at 75 volts for 2 hours and the DNA migration was visualized under UV light.

CEM cells [2] = assay: Cell cycle analysis by flow cytometry; type: cell-based, human; settings: for shift of the cell population from G0/G1 (2N) to G2/M (4N), DNA profile: 8 h treatment, compound 6 2.5 μg/ml, compound 8 0.025 μg/ml, compound 9 0.005 μg/ml; for Apoptosis (%) / G0/G1 (%) / G2/M (%) / S (%) / Mitotic Arrest: 0.025 μg/ml; for Mitotic Arrest: cell cycle analyses
CEM cells [3] = assay: Morphology by microscopy (mitotic arrest, apoptosis, necrosis); type: cell-based, human; set-up: key to Block of Mitosis: +Block of mitosis was observed; −no mitotic blocking; settings: for mitotic arrest (blocking) effect, morphological appearance / Mitotic arrest, % / apoptosis by morphology: CEM cells; for mitotic arrest (blocking) effect, morphological appearance: 24 h, compound 8 at 0.025 μg/ml, compound 9 at 0.005 μg/ml; for Mitotic arrest, %: % of mitotic cells after 24 h incubation, optical microscopy; for apoptosis by morphology: treatment prolonged to 48 h; for morphological effect on leukemic cells / Activities of inducing Apoptosis / Activities of inducing Mitotic block / Activities of inducing Necrosis: CEM leukemic cells; for Activities of inducing Apoptosis / Activities of inducing Mitotic block / Activities of inducing Necrosis: % of affected cells
Description: Slides for examination of mitosis were prepared on a cytospin centrifuge (Shandon Southern Products Ltd, England ) at 700 g for 5 min. Slides were air dried, fixed in methanol and stained with Giemsa (Harleco, N.J.) at room temperature for 15 min. Cells in mitotic arrest were recognized by the disappearance of nuclear membrane and by the appearance of chromosomal scattering throughout the cytoplasm (reference 1). The % of mitotic cells were counted after 24 h incubation using optical microscopy. Apoptotic cells were identified using common criteria, i.e., shrinkage in cell size, chromatin condensation and fragmentation of the nucleus into discrete masses (reference 2).
Cell samples on slides were prepared by a Cytospin centrifuge (Shandon Southern Products Ltd, England) at 700 g for 5 min. The slides were air dried, fixed in methanol and stained with Giemsa (Harleco, N.J.) at room temperature for 15 min. Alterations of nuclei, membranes and morphological features were observed by light microscopy. Cells in mitotic phase were recognized by the appearance of their chromosomes dispersed in the cytoplasm, and by the disappearance of nuclear membrane. Apoptotic-cells were identified using previously defined criteria, i.e., shrinkage in cell size, chromatin condensation and fragmentation of the nucleus into discrete masses (references 2 & 3). Necrotic cells were differentiated from apoptotic cells by observing swollen cytoplasm and the disappearance of cell membrane prior to the destruction of the nucleus.

CEM cells [4] = assay: Cytotoxicity, ID50 and ID90 by trypan blue staining; type: cell-based; settings: for IC90 / IC50: Homo sapiens, CCRF-CEM; for IC90: 48 h, read-out: ID90 (the source's name); for IC50: NT = Non-toxic to CEM cells
Description: CEM cells, a human T-cell lymphoblastoid leukemia cell line (American Type Culture Collection, Rockville, Md.), were cultured in suspension (Iscove's Dulbecco's Medium) supplemented with 10% heat inactivated fetal bovine serum (FBS), penicillin (250 μ/ml) and streptomycin (250 μl/ml). Cells were incubated at 37° C. in 5% C02 and only those cells in exponential growth were used.
CEM cells were seeded into 96-well microplates (Falcon, Oxnard, Calif.) at 10^5 cell per well, then treated with 0-10 μg/ml of the candidate compounds for 48 h at 37° C. yielding a total volume of 250 μ/well. Cell viability was assessed by trypan blue staining. ID50 and ID90 were defined as the concentration killing 50% or 90% of the cells in comparison with untreated controls, and calculated by non-linear regression analysis.
Cells in suspension culture were seeded into 96-well microplates (Falcon, Oxnard, Calif.) at 10^5 cell per well, followed, by treatment with 0-10 μg/ml of the candidate compounds for 48 hr at 37° C. with total volume of 250 μl per well. Cell viability was assessed by trypan blue exclusion.
The ID50 and ID90 was determined in duplicate in every set of experiments, and each experiment was repeated 3 times under identical conditions. ID50 and ID90 were defined as drug concentrations that induced 50% or 90% cellular death in comparison with untreated controls and calculated by non-linear regression analysis. […]

[5] = CEM cells, concentration killing 90% of the cells
[6] = Continuous Exposure (24 hr; 48 hr in footnote)

Compound: NC(=O)NC(=O)c1cccc(NC(=O)CI)c1 [Compound 9, 3-Iodoacetoamido, benzoylurea]
- apoptosis, DNA fragmentation on gel electrophoresis (CEM cells [1]): 180-200 bp multiple-unit ladder pattern
- shift of the cell population from G0/G1 (2N) to G2/M (4N), DNA profile (CEM cells [2]): most significant transformation; also recorded: major shift
- mitotic arrest (blocking) effect, morphological appearance (CEM cells [3]): main features of mitotic arrest
- Mitotic arrest, % (CEM cells [3]): >85%
- apoptosis by morphology (CEM cells [3]): complete apoptosis
- fold more toxic than the bromine compound 8 (CEM cells [4]; CEM cells, cytotoxicity): 5 fold
- fold more toxic than the chlorine compound 7 (CEM cells [4]; CEM cells, cytotoxicity): 160 fold
- IC90 (CEM cells [4]; [5]): 0.005 µg/mL and 14 nM

Compound: NC(=O)NC(=O)c1cccc(NC(=O)CBr)c1 [Compound 8, 3-Bromoacetoamido, benzoylurea]
- apoptosis, DNA fragmentation on gel electrophoresis (CEM cells [1]): 180-200 bp multiple-unit ladder pattern
- Apoptosis (CEM cells [1]; [6]): ++++ (++++: >75% cells were affected)
- Apoptosis (CEM cells [1]; Pulse Exposure (1 hr)): ++++ (++++: >75% cells were affected)
- Apoptosis (%) (CEM cells [2]; 1 hour of treatment): 2%
- G0/G1 (%) (CEM cells [2]; 1 hour of treatment): 48%
- G2/M (%) (CEM cells [2]; 1 hour of treatment): 21%
- S (%) (CEM cells [2]; 1 hour of treatment): 29%
- Apoptosis (%) (CEM cells [2]; 2 hours of treatment): 1%
- G0/G1 (%) (CEM cells [2]; 2 hours of treatment): 35%
- G2/M (%) (CEM cells [2]; 2 hours of treatment): 22%
- S (%) (CEM cells [2]; 2 hours of treatment): 42%
- Apoptosis (%) (CEM cells [2]; 4 hours of treatment): 4%
- G0/G1 (%) (CEM cells [2]; 4 hours of treatment): 28%
- G2/M (%) (CEM cells [2]; 4 hours of treatment): 29%
- S (%) (CEM cells [2]; 4 hours of treatment): 39%
- Apoptosis (%) (CEM cells [2]; 8 hours of treatment): 5%
- G0/G1 (%) (CEM cells [2]; 8 hours of treatment): 16%
- G2/M (%) (CEM cells [2]; 8 hours of treatment): 44%
- S (%) (CEM cells [2]; 8 hours of treatment): 35%
- Apoptosis (%) (CEM cells [2]; 12 hours of treatment): 7%
- G0/G1 (%) (CEM cells [2]; 12 hours of treatment): 4%
- G2/M (%) (CEM cells [2]; 12 hours of treatment): 60%
- S (%) (CEM cells [2]; 12 hours of treatment): 29%
- Apoptosis (%) (CEM cells [2]; 24 hours of treatment): 18%
- G0/G1 (%) (CEM cells [2]; 24 hours of treatment): 2%
- G2/M (%) (CEM cells [2]; 24 hours of treatment): 70%
- S (%) (CEM cells [2]; 24 hours of treatment): 10%
- Apoptosis (%) (CEM cells [2]; 48 hours of treatment): 33%
- G0/G1 (%) (CEM cells [2]; 48 hours of treatment): 1%
- G2/M (%) (CEM cells [2]; 48 hours of treatment): 61%
- S (%) (CEM cells [2]; 48 hours of treatment): 5%
- shift of the cell population from G0/G1 (2N) to G2/M (4N), DNA profile (CEM cells [2]): major shift
- Mitotic Arrest (CEM cells [2]; [6]): ++++ (++++: >75% cells were affected)
- Mitotic Arrest (CEM cells [2]; Pulse Exposure (1 hr)): ++++ (++++: >75% cells were affected)
- mitotic arrest (blocking) effect, morphological appearance (CEM cells [3]): main features of mitotic arrest
- Mitotic arrest, % (CEM cells [3]): >85%
- apoptosis by morphology (CEM cells [3]): complete apoptosis
- morphological effect on leukemic cells (CEM cells [3]): induced mitotic arrest
- Activities of inducing Apoptosis (CEM cells [3]): ++++ (++++: >75%)
- Activities of inducing Mitotic block (CEM cells [3]): ++++ (++++: >75%)
- Activities of inducing Necrosis (CEM cells [3]): − (−:<10%)
- Block of Mitosis (CEM cells [3]; CEM, Human T-cell Leukemia, 37° C. for 48 hr): +
- IC90 (CEM cells [4]; [5]): 0.025 µg/mL and 82 nM
- IC90 (CEM cells [4]; CEM, Human T-cell Leukemia, 48 hr): 0.02 ± 0.003 µg/mL (≈ 0.0666 µM)
- IC50 (CEM cells [4]; CEM leukemic cells, 48 hr): 40 nM
- ID50 of non-malignant cells relative to leukemic and lymphoma cell lines (times) (CEM cells [4]; non-malignant cells vs leukemia or lymphoma cell lines, listed as 3-BAABU): 60-150 times

Compound: NC(=O)NC(=O)c1cccc(NC(=O)CCl)c1 [Compound 7, 3-Chloroacetoamido, benzoylurea]
- apoptosis, DNA fragmentation on gel electrophoresis (CEM cells [1]): much less DNA fragmentation
- shift of the cell population from G0/G1 (2N) to G2/M (4N), DNA profile (CEM cells [2]): slight increase
- mitotic arrest (blocking) effect, morphological appearance (CEM cells [3]): minor
- morphological effect on leukemic cells (CEM cells [3]): also induced mitotic arrest but with less disorganization
- Activities of inducing Apoptosis (CEM cells [3]): ++ (++: 25-50%)
- Activities of inducing Mitotic block (CEM cells [3]): + (+10-25%)
- Activities of inducing Necrosis (CEM cells [3]): − (−:<10%)
- fold increase of ID50 relative to 3-BAABU (CEM cells [4]; CEM leukemic cells): 40 fold
- IC90 (CEM cells [4]; [5]): 0.6 µg/mL and 2.3 µM
- IC50 (CEM cells [4]; CEM leukemic cells, 48 hr): 1950 nM
